In patent US20230183218A1, “CONDENSED SUBSTITUTED HYDROPYRROLES AS ANTAGONISTS OF THE MUSCARINIC ACETYLCHOLINE RECEPTOR M4” (Vanderbilt University, priority 2020, published 2023) one finds remaining activity and IC50 data, which are given here for 13 molecules.

Assay [1] concerns the target T1, Human M4 (Homo sapiens, UniProt P08173).
T1 construct: expressed in transfected cells; host or cells: CHO-K1 (ATCC), stably co-expressing chimeric G protein Gqi5
T1 sequence (P08173 1-479): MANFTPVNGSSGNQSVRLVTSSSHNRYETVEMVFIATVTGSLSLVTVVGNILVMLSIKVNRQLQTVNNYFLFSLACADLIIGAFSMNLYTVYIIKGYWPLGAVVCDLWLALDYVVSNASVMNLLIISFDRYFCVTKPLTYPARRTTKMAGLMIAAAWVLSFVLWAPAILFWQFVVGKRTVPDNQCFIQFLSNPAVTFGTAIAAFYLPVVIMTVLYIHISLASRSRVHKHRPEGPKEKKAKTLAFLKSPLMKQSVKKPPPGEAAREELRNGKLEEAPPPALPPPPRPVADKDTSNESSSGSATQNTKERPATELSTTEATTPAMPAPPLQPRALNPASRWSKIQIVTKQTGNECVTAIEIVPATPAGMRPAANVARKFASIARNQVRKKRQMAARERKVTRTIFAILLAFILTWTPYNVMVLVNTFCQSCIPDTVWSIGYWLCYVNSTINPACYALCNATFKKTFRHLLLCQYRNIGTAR
As to the kind of experiment: mAChR M4 cell-based functional assay (calcium flux, antagonist mode vs EC80 acetylcholine), human M4/Gqi5/CHO-K1 cells. The conditions noted are these: for remaining activity at 30 µM: CHO-K1, % ACh maximum at 30 μM, human M4, read-out: Human M4 Emin (%); for IC50: decrease of response elicited by EC80 acetylcholine, human M4/Gqi5 CHO-K1 cells. How it is done: (§1) Human or rat M4 cDNA, along with the chimeric G protein Gqi5, were transfected into Chinese hamster ovary (CHO-K1) cells purchased from the American Type Culture Collection using Lipofectamine2000. M4/Gqi5/CHO cells were grown in Ham's F-12 medium containing 10% heat-inactivated fetal bovine serum (FBS), 20 mM HEPES, 500 μg/mL G418 sulfate, and 200 μg/mL Hygromycin B.
(§2) For high throughput measurement of agonist-evoked increases in intracellular calcium, CHO-K1 cells stably expressing muscarinic receptors were plated in growth medium lacking G418 and hygromycin at 15,000 cells/20 μL/well in Greiner 384-well black-walled, tissue culture (TC)-treated, clear-bottom plates (VWR). Cells were incubated overnight at 37° C. and 5% CO2. The next day, cells were washed using an ELX 405 (BioTek) with assay buffer; the final volume was then aspirated to 20 μL. Next, 20 μL of a 2.3 μM stock of Fluo-4/acetoxymethyl ester (Invitrogen, Carlsbad, Calif.), prepared as a 2.3 mM stock in DMSO and mixed in a 1:1 ratio with 10% (w/v) Pluronic F-127 and diluted in assay buffer, was added to the wells and the cell plates were incubated for 50 min at 37° C. and 5% CO2. Dye was removed by washing with the ELX 405 and the final volume was aspirated to 20 μL. Compound master plates were formatted in a 10 point concentration-response curve (CRC) format (1:3 dilutions) in 100% DMSO with a starting concentration of 10 or 1 mM using a BRAVO liquid handler (Agilent). Test compound CRCs were then transferred to daughter plates (240 nL) using the Echo acoustic plate reformatter (Labcyte, Sunnyvale, Calif.) and then diluted into assay buffer (40 μL) to a 2× stock using a Thermo Fisher Combi (Thermo Fisher Scientific, Waltham, Mass.).
(§3) Calcium flux was measured using the Functional Drug Screening System (FDSS) 6000 or 7000 (Hamamatsu Corporation, Tokyo, Japan) as an increase in the fluorescent static ratio. Compounds were applied to cells (20 μL, 2×) using the automated system of the FDSS at 2 seconds into the protocol and the data were collected at 1 Hz. At 143 s, 10 μL of an EC20 concentration of the muscarinic receptor agonist acetylcholine was added (5×), followed by the addition of 12 μL of an EC80 concentration of acetylcholine at the 268 s time point (5×). Agonist activity was analyzed as a concentration-dependent increase in calcium mobilization upon compound addition. Positive allosteric modulator activity was analyzed as a concentration-dependent increase in the EC20 acetylcholine response. Antagonist activity was analyzed as a concentration-dependent decrease in the EC80 acetylcholine response; for the purposes of the tables herein, an IC50 (inhibitory concentration 50) was calculated as a concentration-dependent decrease of the response elicited by an EC80 concentration of acetylcholine. Concentration-response curves were generated using a four-parameter logistical equation in XLFit curve fitting software (IDBS, Bridgewater, N.J.) for Excel (Microsoft, Redmond, Wash.) or Prism (GraphPad Software, Inc., San Diego, Calif.) or the Dotmatics software platform (Dotmatics, Bishop's Stortford, UK).
(§4) Compounds were synthesized as described above. Activity (IC50 and Emin) was determined in the mAChR M4 cell-based functional assay as described above and the data are shown in Table 2.

Assay [2] addresses T2, Rat M4 (Rattus norvegicus, UniProt P08485).
T2 construct: expressed in transfected cells; host or cells: CHO-K1 (ATCC), stably co-expressing chimeric G protein Gqi5
T2 sequence (P08485 1-478): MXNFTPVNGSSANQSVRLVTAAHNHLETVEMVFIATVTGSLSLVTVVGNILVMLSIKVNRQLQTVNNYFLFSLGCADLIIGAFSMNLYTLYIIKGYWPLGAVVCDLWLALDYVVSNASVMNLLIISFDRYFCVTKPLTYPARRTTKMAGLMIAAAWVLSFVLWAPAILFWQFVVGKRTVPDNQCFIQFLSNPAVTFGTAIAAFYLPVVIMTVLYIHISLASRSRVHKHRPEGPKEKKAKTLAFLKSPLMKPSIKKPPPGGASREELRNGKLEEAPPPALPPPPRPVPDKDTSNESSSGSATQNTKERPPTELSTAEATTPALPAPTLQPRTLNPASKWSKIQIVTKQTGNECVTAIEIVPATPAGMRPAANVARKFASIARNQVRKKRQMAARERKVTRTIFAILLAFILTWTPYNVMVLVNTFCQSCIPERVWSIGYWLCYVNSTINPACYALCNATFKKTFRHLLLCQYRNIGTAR
The experiment in a line: mAChR M4 cell-based functional assay (calcium flux, antagonist mode vs EC80 acetylcholine), rat M4/Gqi5/CHO-K1 cells. The conditions noted are these: for remaining activity at 30 µM: CHO-K1, % ACh maximum at 30 μM, rat M4, read-out: Rat M4 Emin (%); for IC50: decrease of response elicited by EC80 acetylcholine, rat M4/Gqi5 CHO-K1 cells. How it is done:
as §1, §2, §3, §4

For `COCCCN1C[C@H]2C[C@H](Nc3ccc(-c4cc(F)ccc4Cl)nn3)C[C@H]2C1` [compound 1, (3aR,5s,6aS)-N-(6-(2-chloro-5-fluorophenyl)pyridazin-3-yl)-2-(3-methoxypropyl)octahydrocyclopenta[c]pyrrol-5-amine], in assay [1], the remaining activity at 30 µM stood at 4% and the IC50 stood at 0.0422 µM. Moreover, in assay [2], the remaining activity at 30 µM is 5% and the IC50 was found to be 0.74 µM.

Turning to `Fc1ccc(Cl)c(-c2ccc(N[C@H]3C[C@@H]4CN(C5CCOCC5)C[C@@H]4C3)nn2)c1` [compound 2, (3aR,5s,6aS)-N-(6-(2-chloro-5-fluorophenyl)pyridazin-3-yl)-2-(tetrahydro-2H-pyran-4-yl)octahydrocyclopenta[c]pyrrol-5-amine], the remaining activity at 30 µM stood at 5% in assay [1] and 6% in assay [2]. Besides, the IC50 was determined as 0.0647 µM in assay [1] and 1.27 µM in assay [2].

Turning to `O=C(NC1CC1)c1ccc(N[C@H]2C[C@@H]3CN(CC4CCOCC4)C[C@@H]3C2)nn1` [compound 3, N-cyclopropyl-6-(((3aR,5s,6aS)-2-((tetrahydro-2H-pyran-4-yl)methyl)octahydrocyclopenta[c]pyrrol-5-yl)amino)pyridazine-3-carboxamide], in assay [1], the remaining activity at 30 µM turned out to be 9% and the IC50 turned out to be 0.417 µM.

Turning to `O=C(NC1CCCCC1)c1ccc(N[C@H]2C[C@@H]3CN(CC4CCOCC4)C[C@@H]3C2)nn1` [compound 4, N-cyclohexyl-6-(((3aR,5s,6aS)-2-((tetrahydro-2H-pyran-4-yl)methyl)octahydrocyclopenta[c]pyrrol-5-yl)amino)pyridazine-3-carboxamide], in assay [1], the remaining activity at 30 µM turned out to be 6% and the half-inhibitory concentration (IC50) is 0.535 µM.

Regarding `O=C(c1ccc(N[C@H]2C[C@@H]3CN(CC4CCOCC4)C[C@@H]3C2)nn1)N1CCCCC1` [compound 5, piperidin-1-yl(6-(((3aR,5s,6aS)-2-((tetrahydro-2H-pyran-4-yl)methyl)octahydrocyclopenta[c]pyrrol-5-yl)amino)pyridazin-3-yl)methanone], in assay [1], the remaining activity at 30 µM was 14% and the IC50 was 0.00545 µM. In assay [2], the remaining activity at 30 µM was found to be 14% and the IC50 was above 10 µM.

As for `O=C(c1ccc(N[C@H]2C[C@@H]3CN(CC4CCOCC4)C[C@@H]3C2)nn1)N1CCOCC1` [compound 6, morpholino(6-(((3aR,5s,6aS)-2-((tetrahydro-2H-pyran-4-yl)methyl)octahydrocyclopenta[c]pyrrol-5-yl)amino)pyridazin-3-yl)methanone], in assay [1], the remaining activity at 30 µM was determined as 21% and the IC50 worked out at 0.0117 µM. For the same molecule, in assay [2], the remaining activity at 30 µM was found to be 13% and the IC50 worked out at 7.43 µM.

For `O=C(Nc1ccccc1)c1ccc(N[C@H]2C[C@@H]3CN(CC4CCOCC4)C[C@@H]3C2)nn1` [compound 7, N-phenyl-6-(((3aR,5s,6aS)-2-((tetrahydro-2H-pyran-4-yl)methyl)octahydrocyclopenta[c]pyrrol-5-yl)amino)pyridazine-3-carboxamide], in assay [1], the remaining activity at 30 µM was found to be 4% and the IC50 was 0.572 µM. In assay [2], the remaining activity at 30 µM came to 22% and the IC50 is above 10 µM.

For `O=C(Nc1ccccc1F)c1ccc(N[C@H]2C[C@@H]3CN(CC4CCOCC4)C[C@@H]3C2)nn1` [compound 8, N-(2-fluorophenyl)-6-(((3aR,5s,6aS)-2-((tetrahydro-2H-pyran-4-yl)methyl)octahydrocyclopenta[c]pyrrol-5-yl)amino)pyridazine-3-carboxamide], the remaining activity at 30 µM came to 4% in assay [1] and 25% in assay [2]. In addition, the results for the IC50 in assay [1] and in assay [2] were 0.355 µM and above 10 µM, respectively.

For `O=C(Nc1cccc(F)c1)c1ccc(N[C@H]2C[C@@H]3CN(CC4CCOCC4)C[C@@H]3C2)nn1` [compound 9, N-(3-fluorophenyl)-6-(((3aR,5s,6aS)-2-((tetrahydro-2H-pyran-4-yl)methyl)octahydrocyclopenta[c]pyrrol-5-yl)amino)pyridazine-3-carboxamide], in assay [1], the remaining activity at 30 µM is 3% and the IC50 worked out at 0.713 µM.

On to `O=C(Nc1ccc(F)cc1)c1ccc(N[C@H]2C[C@@H]3CN(CC4CCOCC4)C[C@@H]3C2)nn1` [compound 10, N-(4-fluorophenyl)-6-(((3aR,5s,6aS)-2-((tetrahydro-2H-pyran-4-yl)methyl)octahydrocyclopenta[c]pyrrol-5-yl)amino)pyridazine-3-carboxamide], for which the remaining activity at 30 µM in assay [1] is 4%; in assay [2] it was 9%. Moreover, the results for the IC50 in assay [1] and in assay [2] were 0.543 µM and 4.19 µM, respectively.

Take `N#Cc1ccccc1N1C[C@H]2C[C@H](Nc3ccc(-c4cc(F)ccc4Cl)nn3)C[C@H]2C1` [compound 17, 2-((3aR,5s,6aS)-5-((6-(2-chloro-5-fluorophenyl)pyridazin-3-yl)amino)hexahydrocyclopenta[c]pyrrol-2(1H)-yl)benzonitrile]: in assay [1], the remaining activity at 30 µM was found to be 57% and the IC50 was at least 10 µM.

On to `CC1(C)CC(N2C[C@H]3C[C@H](Nc4ncc(-c5ccccc5)s4)C[C@H]3C2)CCO1` (stereo partly drawn) [compound 19, N-((3aR,5s,6aS)-2-(2,2-dimethyltetrahydro-2H-pyran-4-yl)octahydrocyclopenta[c]pyrrol-5-yl)-5-phenylthiazol-2-amine], for which, in assay [2], the remaining activity at 30 µM was determined as 70% and the IC50 is above 10 µM.

With `CC1(C)CC(N2C[C@H]3C[C@H](Nc4ccc5nncn5n4)C[C@H]3C2)CCO1` (stereo partly drawn) [compound 61, N-((3aR,5s,6aS)-2-(2,2-dimethyltetrahydro-2H-pyran-4-yl)octahydrocyclopenta[c]pyrrol-5-yl)-[1,2,4]triazolo[4,3-b]pyridazin-6-amine], in assay [1], the remaining activity at 30 µM came out at 52% and the IC50 is above 10 µM.
